Data: patent publication US11834663B2, “Fibrotic treatment” (Monash University, priority 2015, dated 2023)

Tested on: livers of WT mice on high salt diet
Experiment: High salt diet-induced liver fibrosis reversal model (Masson's trichrome)
Format: in vivo, mouse
Details: WT mice on 5% NaCl diet 8 weeks, FIG. 28
Experimental: Male C57BL/6J wild type (WT) mice aged approximately 4 to 6 months weighing 30-40 grams were obtained from Monash Animal Research Laboratory. Animals were housed in the Animal House in the Department of Pharmacology, Monash University, in standard cages where they were initially maintained on a normal diet. The housing was maintained at roughly 21° C.±5° C. with mice exposed to a 12 hour light/dark cycle, and access to food and water ad libitum. Experimental procedures undertaken were approved and certified by the School of Biomedical Sciences (SOBS) Animal Ethics Committee of Monash University (2013/118).
A high-salt diet (5% salt) model is a clinically relevant and disease-reversal model which can replicate the high salt intake by humans which is currently a growing problem in the developed countries. High salt intake induces changes in the cardiovascular system and induces remodelling and fibrosis in the heart and liver. […]
Quantification of liver fibrosis was performed using images captured with the Aperio scanner (Monash Histology Platform, Monash University), with ×5 magnification. […] Percentage of interstitial and perivascular collagen was analysed and quantified using ImageJ 1.48 software (Java, NIH), and the percentage from 5 random fields of view were averaged for final percentage of collagen for that particular animal. […]

CCOC(=O)C1=C(NC(C)=O)Oc2cc(O)ccc2C1c1cccnc1 (centres unmarked) [HFI-419]
HSD-induced collagen deposition in liver (Masson's trichrome) (HFI-419 0.72 mg/kg/d s.c. for last 4 weeks): significantly reversed HSD-induced collagen deposition to the same level seen in mice fed a normal chow diet | indicators of steatosis in the liver (HFI-419 for last 4 weeks): markedly reduced
